Tested on: HepG2 cells
Experiment: Nude mouse model of hepatocellular carcinoma (HepG2), growth rate
Format: in vivo, nude mice
Conditions: nude mouse model, 75 mg/kg, twice a day, versus blank carrier control
Description: In contrast, LD30 (1 mg/kg/time, twice a day) reduced the growth rate of HepG2 cells by about 63%, with statistical significance (p<0.05) when compared with the ethanol control.
LD030 was also compared with Nexavar for their effects on the growth rate of HepG2 cells.
A further study was conducted on liver cancer cell line in nude mice (HepG2), where Nexavar's dosage was 30 mg/kg, twice a day and LD030's dosage was 1 mg/kg, twice a day along with a blank control and a combination of LD030 and Nexavar. The result is shown in FIG. 21 where Nr stands for Nexavar. […] When compared with the blank, LD030's effect is statistically significant (p<0.05).

## CNC(=O)c1cc(Oc2ccc(NC(=O)Nc3ccc(Cl)c(C(F)(F)F)c3)cc2)ccn1 [Nexavar, reference compound]
  reduction of growth rate of HepG2 cells: about 80%
